According to ChEMBL document CHEMBL1201862, “PubChem BioAssay data set” (2004):
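Growth conditions: 96-well plates. Treatment: test compound, 48 hours, 5 concentrations. Analysis: linear interpolation between bracketing concentrations; unreached endpoints set to highest concentration. The concentration for 50% growth inhibition is given as GI50.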 Activity calls are given as the source filed them. Cut-off read from the data, not from the text of the source: active = GI50 up to about 1.1 µM and inactive = higher.

Legend:
Test in all cases: growth of human tumour cells (NCI), 48 h
A498 = test system: A498
BT-549 = test system: BT-549
COLO 205 = test system: COLO 205
EKVX = test system: EKVX
HL-60 = test system: HL-60
IGROV-1 = test system: IGROV-1
KM12 = test system: KM12
MOLT-4 = test system: MOLT-4
Malme-3M = test system: Malme-3M
NCI-H226 = test system: NCI-H226
OVCAR-8 = test system: OVCAR-8
PC-3 = test system: PC-3
SF-268 = test system: SF-268
SF-295 = test system: SF-295
SF-539 = test system: SF-539
SK-MEL-28 = test system: SK-MEL-28
SK-MEL-5 = test system: SK-MEL-5
M14 = test system: M14
SK-OV-3 = test system: SK-OV-3
HOP-92 = test system: HOP-92

Measured: GI50

CC(=O)OCC1OC(c2nnc(C)o2)=CC(OC(C)=O)C1OC(C)=O (stereo not given)
inactive: A498 > 100 µM | BT-549 > 100 µM | COLO 205 > 100 µM | EKVX > 100 µM | HL-60 > 100 µM | IGROV-1 > 100 µM | KM12 > 100 µM | MOLT-4 > 100 µM | Malme-3M > 100 µM | NCI-H226 > 100 µM | OVCAR-8 > 100 µM | PC-3 > 100 µM | SF-268 > 100 µM | SF-295 > 100 µM | SF-539 > 100 µM | SK-MEL-28 > 100 µM | SK-MEL-5 > 100 µM

COc1cc(C2SC(=N)Nc3c2c(C)nn3C(=O)Cc2ccccc2)cc(OC)c1OC (stereo not given)
inactive: A498 > 100 µM | BT-549 > 100 µM | COLO 205 > 100 µM | EKVX > 100 µM | HL-60 > 100 µM | IGROV-1 > 100 µM | KM12 > 100 µM | M14 > 100 µM | MOLT-4 > 100 µM | NCI-H226 > 100 µM | OVCAR-8 > 100 µM | PC-3 > 100 µM | SF-268 > 100 µM | SF-295 > 100 µM | SF-539 > 100 µM | SK-MEL-28 > 100 µM | SK-MEL-5 > 100 µM | SK-OV-3 > 100 µM

c1ccc(-c2cc(-c3cc(-c4ccccc4)n(-c4ccccc4)n3)nn2-c2ccccc2)cc1
inactive: A498 > 100 µM | BT-549 > 100 µM | COLO 205 > 100 µM | EKVX > 100 µM | IGROV-1 > 100 µM | KM12 > 100 µM | M14 > 100 µM | MOLT-4 > 100 µM | Malme-3M > 100 µM | NCI-H226 > 100 µM | OVCAR-8 > 100 µM | PC-3 > 100 µM | SF-268 > 100 µM | SF-295 > 100 µM | SF-539 > 100 µM | SK-MEL-5 > 100 µM | SK-OV-3 > 100 µM

CC(C)(C)N/C(N)=N/C#N
inactive: BT-549 > 100 µM | COLO 205 > 100 µM | EKVX > 100 µM | HL-60 > 100 µM | HOP-92 > 100 µM | IGROV-1 > 100 µM | M14 > 100 µM | MOLT-4 > 100 µM | Malme-3M > 100 µM | OVCAR-8 > 100 µM | PC-3 > 100 µM | SF-268 > 100 µM | SF-539 > 100 µM | SK-MEL-28 > 100 µM | SK-MEL-5 > 100 µM | SK-OV-3 > 100 µM

COc1ccc(/C=C2\S/C(=N/Nc3nc(-c4ccccc4)cs3)NC2=O)cc1OC
inactive: BT-549 24.5 µM | COLO 205 35.6 µM | EKVX 22.6 µM | HL-60 6 µM | HOP-92 12.6 µM | IGROV-1 12.6 µM | KM12 24.5 µM | M14 32.4 µM | MOLT-4 3.07 µM | OVCAR-8 21 µM | PC-3 17.4 µM | SF-268 29 µM | SF-295 25.3 µM | SF-539 24.3 µM | SK-MEL-28 32.7 µM | SK-MEL-5 15.5 µM | SK-OV-3 21.5 µM

COC(=O)C(Cc1ccccc1)NC(=O)CCCNC(=O)OCc1ccccc1 (stereo not given)
inactive: BT-549 > 100 µM | COLO 205 77.4 µM | EKVX > 100 µM | HL-60 33.7 µM | HOP-92 99.1 µM | IGROV-1 > 100 µM | KM12 > 100 µM | M14 17.1 µM | MOLT-4 29.2 µM | Malme-3M 7.33 µM | NCI-H226 > 100 µM | OVCAR-8 > 100 µM | PC-3 > 100 µM | SF-268 > 100 µM | SF-295 > 100 µM | SK-MEL-28 48.2 µM | SK-MEL-5 22.4 µM | SK-OV-3 > 100 µM

O=C(Nc1ccccc1Cl)c1cc(S(=O)(=O)Nc2n[nH]c(=O)n2-c2ccccc2)c(S)cc1Cl
inactive: A498 > 100 µM | BT-549 > 100 µM | COLO 205 > 100 µM | EKVX > 100 µM | HL-60 > 100 µM | HOP-92 > 100 µM | IGROV-1 > 100 µM | KM12 > 100 µM | M14 > 100 µM | MOLT-4 > 100 µM | Malme-3M > 100 µM | NCI-H226 > 100 µM | OVCAR-8 > 100 µM | SF-268 > 100 µM | SF-295 > 100 µM | SF-539 > 100 µM | SK-MEL-28 > 100 µM | SK-MEL-5 > 100 µM | SK-OV-3 > 100 µM

COc1ccc(-c2cc(=O)c3c(OC)c(OC)c(OC)c(OC)c3o2)c(OC)c1
inactive: A498 21.6 µM | BT-549 31 µM | COLO 205 17.1 µM | EKVX 29.2 µM | HL-60 29.7 µM | HOP-92 14 µM | IGROV-1 36.9 µM | M14 21 µM | MOLT-4 26.4 µM | Malme-3M 30.5 µM | NCI-H226 31 µM | OVCAR-8 21.9 µM | SF-268 51.5 µM | SF-295 18.4 µM | SF-539 61.4 µM | SK-MEL-28 42.9 µM | SK-MEL-5 16 µM | SK-OV-3 39.8 µM
